Literature values in US20250170284A1, “Hydroxamic Acid Macrocyclic Agents With Pendant Chelating Moieties And Complexes Thereof” (LUMIPHORE, INC., priority 2022, published 2025).

Conditions: complex formation of the ligand with thorium(IV)

## diethylenetriamine pentaacetic acid [DTPA]
  Log K1: 30.34
